Measured values taken from patent US20040146959A1, “Fluorescent enzyme assay methods and compositions” (priority 2002, published 2004).
Values belong to the substance of their own block, whether it stands above or below them. Where no end group is shown, it is not given here. [ ]: non-standard residue; d: D form. The star is where a group is joined. C13 = acyl group coded C13, not further defined; C15 = acyl group coded C15, not further defined; C17 = acyl group coded C17, not further defined; Palmitoyl = CCCCCCCCCCCCCCCC(=O)*; pS = N[C@@H](COP(=O)(O)O)C(=O)O; K(dye2) = not defined here; OOO = not defined here

Experiments:
PKA = molecular target: T1, PKA (Bos taurus, UniProt P00517); test: Phosphorylation assay of linker substrates (Table 3), PKA; type: biochemical; conditions: substrate conc 8 uM
T1 construct: purchased Promega (Madison, Wis.)

[1] = test system: CCCCCCCCCCCCCCCC(=O)NCc1ccc(C(=O)NCc2c(O)ccc3c2Oc2cc(O)ccc2C32OC(=O)c3cc(C(=O)N[C@@H](COP(=O)(O)O)C(=O)N[C@@H](CC(C)C)C(=O)N[C@@H](CCCNC(=N)N)C(=O)N[C@@H](CCCNC(=N)N)C(=O)N[C@@H](CCCNC(=N)N)C(=O)N[C@@H](CCCNC(=N)N)C(=O)N[C@@H](Cc4ccccc4)C(=O)N[C@@H](CO)C(=O)N[C@@H](CCCCNC(C)=O)C(=O)NCC(N)=O)ccc32)cc1; test: Protein kinase A detection, double reciprocal plot of initial velocities (Example 1B); type: biochemical; conditions: other: substrate 0.15, 0.3, 0.6 μM, Tris pH 8.5, Mg-ATP 1 mM, cAMP 1 μM, catalytic subunit 2 units
Experimental: (1 μM), and different concentrations of compound 1 (0.15 μM, 0.3 μM, and 0.6 μM), to which the catalytic subunit of protein kinase A (2 units) was then added. Fluorescence was monitored on a Perkin-Elmer LS-50B luminescence spectrometer with 500 nm excitation and emission at 530 nm, and slit width at 5 nm.

protein kinase A = molecular target: T2, protein kinase A (Bos taurus, UniProt P00517); test: Detection of protein kinase activity, fluorescence increase (Examples 4B, 5B, 6B); type: biochemical; conditions: for time to maximum fluorescence: after addition of ATP (compounds 7, 8) or enzyme (compound 9); for fold increase in fluorescence: maximum vs starting fluorescence; for maximum fluorescence after start of the kinase reaction / fluorescence before start of the kinase reaction: substrate 1 μM; for maximum fluorescence after start of the kinase reaction: ATP 0.5 mM, protein kinase A 35 or 7 units; for fluorescence before start of the kinase reaction: Tris pH 8.1 20 mM, MgCl2 1 mM, 100 μL
T2 construct: purchased Promega (Madison, Wis.)
Experimental: Fluorescence data were collected on a Perkin-Elmer LS-50B luminescence spectrometer. […] ATP was added to a final concentration of 0.5 mM and the fluorescence monitored, reaching a maximum of 180 fluorescence units after 6 minutes, or a 5-fold increase.
Fluorescence data were collected on a Perkin-Elmer LS-50B luminescence spectrometer. […] ATP was added to a final concentration of 0.5 mM and the fluorescence monitored, reaching a maximum of 493 fluorescence units after 5 minutes, or a 3.5-fold increase.
Fluorescence data were collected on a Perkin-Elmer LS-50B luminescence spectrometer. […] Protein kinase A (7 Units) was added and the fluorescence monitored, reaching a maximum of 420 fluorescence units after 3 minutes, or an 8-fold increase.

[2] = test system: T3, compound 1, palmitoyl-FAM-S(OPO3^2-)LRRRRFSK(Ac)G-amide
T3 sequence: SLRRRRFSKG

PKC = test: Phosphorylation assay of linker substrates (Table 3), PKC; type: biochemical; conditions: substrate conc 4 or 6 uM (column Conc)
Experimental: Protein kinase C reaction mixture aliquots (9 μL each) containing 2 μL 5× buffer (composed of 100 mM Tris, pH 8.1+25 mM MgCl2, and 0.5% v/v β-mercaptoethanol) 1 μL Upstate Lipid Activator, 0.05 μL Promega Protein Kinase C, 5.55 μL deionized water, and 0.4 μL substrate were added to wells of the 384 well plate. The reactions were initiated by the addition of 1 μL of Sigma-Aldrich ATP into each well.

MAPKAP2 = MAPKAP2 (Homo sapiens, UniProt P49137); test: Phosphorylation assay of linker substrates (Table 3), MAPKAP2; type: biochemical; conditions: substrate conc 8 uM
Src, lyn, fyn = test: Phosphorylation assay of linker substrates (Table 3), Src, lyn, fyn; type: biochemical; conditions: substrate conc 8 uM
Akt = Akt (Homo sapiens, UniProt P31749); test: Phosphorylation assay of linker substrates (Table 3), Akt; type: biochemical; conditions: substrate conc 8 uM
[3] = molecular target: T4, pp60^c-src-related protein tyrosine kinase (Homo sapiens, UniProt P12931); test: Detection of pp60c-src-related protein tyrosine kinase (Example 10B); type: biochemical; conditions: substrate 2.5 μM, 5 μL reaction volume, ATP 50 μM
T4 construct: purchased Upstate, Inc. (Lake Placid, N.Y.) 14-326
Experimental: Example 10 describes an assay for pp60^c-src-related protein tyrosine kinase. […] Enzyme reactions were performed in triplicate for a single substrate concentration, and two no-enzyme controls were also performed.
Five wells of a Corning 384-well plate, black with a non-binding surface and low volume wells (cat. No. 3676) (Corning, Inc., Acton, Mass.) were used. Each well contained 5 μL of a solution containing compound 9 (2.5 μM), MgCl2 (1 mM), Tris buffer, pH 8.1 (20 mM) and src, active (1 unit, cat. No. 14-326). The kinase reaction was initiated in three of the wells by the addition of 1.25 μL of ATP (200 μM) to a final concentration of 50 μM.

[4] = molecular target: E. coli alkaline phosphatase (Escherichia coli, UniProt P00634); test: Detection of phosphatase activity (Example 2B); type: biochemical; conditions: substrate 20 μM, Tris HCl pH 9, MgCl2 1 mM, 0.5 units enzyme
Experimental: Phosphatase reactions were performed in a 100 μL reaction mixture containing compound 2 (20 μM), Tris HCl buffer (50 mM) at pH 9, and MgCl2 (1 mM). Reactions were initiated by adding 0.5 units of E. coli alkaline phosphatase in 1 to 5 μL. The fluorescence was monitored on a Perkin-Elmer LS-50B luminescence spectrometer with excitation at 480 nm and emission at 525 and slit widths at 5 nm.

MAPK = test: Phosphorylation assay of linker substrates (Table 3), MAPK; type: biochemical; conditions: substrate conc 16 uM

Sequence of MAPKAP2 (P49137 whole entry): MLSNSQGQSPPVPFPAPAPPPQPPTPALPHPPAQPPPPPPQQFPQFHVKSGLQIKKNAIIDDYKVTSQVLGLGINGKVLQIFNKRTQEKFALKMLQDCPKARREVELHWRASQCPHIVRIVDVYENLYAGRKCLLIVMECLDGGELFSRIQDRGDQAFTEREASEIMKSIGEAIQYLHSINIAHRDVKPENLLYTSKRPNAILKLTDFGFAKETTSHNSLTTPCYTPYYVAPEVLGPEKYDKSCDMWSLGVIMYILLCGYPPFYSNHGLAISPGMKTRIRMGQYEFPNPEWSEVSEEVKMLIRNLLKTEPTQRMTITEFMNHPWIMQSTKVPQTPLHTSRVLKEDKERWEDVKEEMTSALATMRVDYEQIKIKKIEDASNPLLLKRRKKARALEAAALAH
Sequence of Akt (P31749 whole entry): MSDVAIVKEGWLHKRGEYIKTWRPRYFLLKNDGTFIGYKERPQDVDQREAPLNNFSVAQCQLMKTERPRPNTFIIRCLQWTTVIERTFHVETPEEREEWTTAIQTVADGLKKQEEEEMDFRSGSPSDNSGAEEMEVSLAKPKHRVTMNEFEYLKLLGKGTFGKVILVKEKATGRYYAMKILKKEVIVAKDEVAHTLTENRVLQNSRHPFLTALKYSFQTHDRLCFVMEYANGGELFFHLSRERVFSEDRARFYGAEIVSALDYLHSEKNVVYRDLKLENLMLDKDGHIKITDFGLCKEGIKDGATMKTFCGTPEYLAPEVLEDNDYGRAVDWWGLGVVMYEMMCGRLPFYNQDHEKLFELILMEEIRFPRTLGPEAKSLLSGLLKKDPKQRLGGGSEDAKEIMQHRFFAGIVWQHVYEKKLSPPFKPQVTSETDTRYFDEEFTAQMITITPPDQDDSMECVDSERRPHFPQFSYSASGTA
Sequence of E. coli alkaline phosphatase (P00634 22-471): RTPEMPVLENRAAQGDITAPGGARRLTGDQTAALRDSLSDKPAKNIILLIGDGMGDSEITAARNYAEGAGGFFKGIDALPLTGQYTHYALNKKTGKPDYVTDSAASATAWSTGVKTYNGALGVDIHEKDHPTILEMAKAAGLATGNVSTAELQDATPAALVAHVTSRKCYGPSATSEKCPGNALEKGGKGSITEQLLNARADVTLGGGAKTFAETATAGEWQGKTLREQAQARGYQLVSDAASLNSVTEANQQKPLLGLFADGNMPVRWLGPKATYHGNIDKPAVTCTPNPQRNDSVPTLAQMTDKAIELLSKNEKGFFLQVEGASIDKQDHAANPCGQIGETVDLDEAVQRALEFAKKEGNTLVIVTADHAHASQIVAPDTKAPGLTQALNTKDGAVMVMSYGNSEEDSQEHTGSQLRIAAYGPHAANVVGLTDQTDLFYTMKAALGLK

- Fold increase (PKA): 5×
- RFUs at 10 uL (final) (PKA): 5000 RFUs
- RFUs at 10 uL (initial) (PKA): 1000 RFUs
Substance: C13-OOOK(dye2)-LRRASLG-NH2 (not fully specified (N-terminus); printed as C13-OOOK(dye2)-LRRASLG-NH2) [PKA substrate; O = 2-aminoethoxy-2-ethoxyacetyl linker]

Substance: protein kinase A (Bos taurus)
- Km [1]: 0.3 µM

- time to maximum fluorescence (protein kinase A): 3 min
- fold increase in fluorescence (protein kinase A): 8 fold
- maximum fluorescence after start of the kinase reaction (protein kinase A): 420 fluorescence units
- fluorescence before start of the kinase reaction (protein kinase A): 50 fluorescence units
Substance: N-AcetylRGRPRTSSFAEG-OOOK(N-5-Carboxysulfo-fluroescein)K(N-Octadecanoyl)-amide [Compound 9]

Substance: protein kinase A
- Km (double reciprocal plot of initial velocities, fluorescence kinase assay) [2]: a Km value of 0.3 µM

Substance: (N-palmitoyl)-Lys(N-5-carboxy-2,′7′-dipyridyl-sulfofluorescein)-OOO-RREGSFR-amide (RREGSFR-NH2; not fully specified (N-terminus); printed as C16-OOOK(dye2)-RREGSFR-NH2) [Compound 10]
- Fold increase (PKC): 4.5×
- RFUs at 10 uL (final) (PKC): 3000 RFUs
- RFUs at 10 uL (initial) (PKC): 650 RFUs

- Fold increase (MAPKAP2): 4×
- RFUs at 10 uL (final) (MAPKAP2): 3200 RFUs
- RFUs at 10 uL (initial) (MAPKAP2): 800 RFUs
Substance: C16-OOOK(dye2)RLNRTLSV-NH2 ({Palmitoyl-OOO-K(dye2)}-RLNRTLSV-NH2; reading uncertain; also: printed as C16-OOOK(dye2)RLNRTLSV-NH2) [MAPKAP2 substrate]

Substance: C13-K(dye2)-LRRASLG-NH2 ({C13-K(dye2)}-LRRASLG-NH2; reading uncertain; also: printed as C13-K(dye2)-LRRASLG-NH2) [PKA substrate; dye2 = 5-carboxy-2′,7′-dipyridyl-sulfonefluorescein]
- Fold increase (PKA): 5×
- RFUs at 10 uL (final) (PKA): 5000 RFUs
- RFUs at 10 uL (initial) (PKA): 1000 RFUs

Substance: (5-carboxy-2,7-dipyridyl-sulfofluorescein)-K-(N-perfluoro-octanoyl-proline)-LRRASLG-amide [Compound 8]
- time to maximum fluorescence (protein kinase A): 5 min
- fold increase in fluorescence (protein kinase A): 3.5 fold
- maximum fluorescence after start of the kinase reaction (protein kinase A): 493 fluorescence units
- fluorescence before start of the kinase reaction (protein kinase A): 140 fluorescence units

- time to maximum fluorescence (protein kinase A): 6 min
- fold increase in fluorescence (protein kinase A): 5 fold
- maximum fluorescence after start of the kinase reaction (protein kinase A): 180 fluorescence units
- fluorescence before start of the kinase reaction (protein kinase A): 35 fluorescence units
Substance: N-(1H, 1H,2H,2H-Perfluorodecyl-1-thiol-2-acetyl)-K-(5-carboxysulfofluorescein) LRRASL-G-amide [Compound 7]

Substance: C16-OOOK(dye2)RIGEGTYGVVRR-NH2 ({Palmitoyl-OOO-K(dye2)}-RIGEGTYGVVRR-NH2; reading uncertain; also: printed as C16-OOOK(dye2)RIGEGTYGVVRR-NH2) [Src, lyn, fyn substrate]
- Fold increase (Src, lyn, fyn): 6.5×
- RFUs at 10 uL (final) (Src, lyn, fyn): 6500 RFUs
- RFUs at 10 uL (initial) (Src, lyn, fyn): 1000 RFUs

- Fold increase (Akt): 4×
- RFUs at 10 uL (final) (Akt): 7500 RFUs
- RFUs at 10 uL (initial) (Akt): 1500 RFUs
Substance: C15-OOOK(dye2)RPRTSSF-NH2 ({C15-OOO-K(dye2)}-RPRTSSF-NH2; reading uncertain; also: printed as C15-OOOK(dye2)RPRTSSF-NH2) [Akt substrate]

Substance: N-palmitoyl-Lys(ε-N-5-carboxy-sulfonefluorescein)KVEKIGEGTYGVVKK-amide ({Palmitoyl-K(5-carboxy-sulfonefluorescein)}-KVEKIGEGTYGVVKK-NH2) [Compound 13]
- fluorescent signal on reaction with kinase [3]: a strong fluorescent signal with high signal-to-noise was observed

Substance: palmitoyl-LRRRRFS(OPO3^2−)K(5-FAM)G-amide (Palmitoyl-LRRRRF[pS]-{K(5-FAM)-Gly-NH2}) [Compound 2]
- change in fluorescence over time on reaction with phosphatase [4]: immediate and significant increase in fluorescence over time

Substance: C17-OOOK(dye2)PRTPGGR-NH2 ({C17-OOO-K(dye2)}-PRTPGGR-NH2; reading uncertain; also: printed as C17-OOOK(dye2)PRTPGGR-NH2) [MAPK substrate]
- Fold increase (MAPK): 5×
- RFUs at 10 uL (final) (MAPK): 5700 RFUs
- RFUs at 10 uL (initial) (MAPK): 1100 RFUs

Substance: C17-OOOK(tet)-RQGSFRA-NH2 ({C17-OOO-K(TET)}-RQGSFRA-NH2; reading uncertain; also: printed as C17-OOOK(tet)-RQGSFRA-NH2) [PKC substrate; tet = 2′,7′,4,7-tetachloro-5-carboxy fluorescein]
- Fold increase (PKC): 7×
- RFUs at 10 uL (final) (PKC): 4900 RFUs
- RFUs at 10 uL (initial) (PKC): 700 RFUs
